The text below walks through data of US20060135551A1, “Novel heterocyclic compounds and their pharmaceutical compositions” (priority 2004, published 2006).

For the assay, the target named is T1, Recombinant CETP enzyme (Homo sapiens, UniProt P11597).
T1 construct: purchased Cardiovascular Targets
T1 sequence (P11597 18-493): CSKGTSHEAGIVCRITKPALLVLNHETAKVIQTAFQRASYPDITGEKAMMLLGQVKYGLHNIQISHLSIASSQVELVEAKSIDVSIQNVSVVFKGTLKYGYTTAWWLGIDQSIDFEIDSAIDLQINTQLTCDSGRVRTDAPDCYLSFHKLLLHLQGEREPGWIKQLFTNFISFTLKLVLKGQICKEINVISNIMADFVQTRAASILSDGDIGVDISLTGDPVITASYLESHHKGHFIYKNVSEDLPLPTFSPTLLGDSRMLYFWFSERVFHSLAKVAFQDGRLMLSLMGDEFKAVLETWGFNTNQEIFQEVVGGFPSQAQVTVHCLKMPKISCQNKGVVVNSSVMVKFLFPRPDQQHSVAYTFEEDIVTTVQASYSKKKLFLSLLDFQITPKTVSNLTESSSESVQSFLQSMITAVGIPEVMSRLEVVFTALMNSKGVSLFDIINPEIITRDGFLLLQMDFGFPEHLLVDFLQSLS
As to the kind of experiment: In vitro fluorescence-based CETP inhibition assay (BODIPY-CE transfer from donor to acceptor microemulsions). It counts as biochemical. The conditions noted are these: recombinant CETP 0.14 ng/μl; transfer of fluorescent cholesteryl ester monitored over 2 hours; compared to DMSO controls. As for the experimental part:
An in vitro fluorescence-based assay to identify CETP inhibitors was developed from modifications of the protocols outlined in Bisgaier et al., J Lipid Res., 34(9): 1625-34 (1993) and Epps et al., Chem Phys Lipids., 77(1): 51-63 (1995). Acceptor and donor lipid microemulsions were prepared according to Bisgaier et al., 1993, except that the buffer was prepared with 0.67 ug/ml human HDL (Calbiochem). Donor microemulsions contained the fluorescent cholesteryl ester analog BODIPY-CE (Molecular Probes), characterized by excitation and emission maxima at 503 nm and 518 nm, respectively. The CETP-mediated transfer of fluorescent cholesteryl ester to acceptor particles was monitored over a 2-hour time period using the FAM filter set (excitation 492 nm, emission 516 nm) in an MX3000P fluorescent plate reader (Stratagene). Recombinant CETP enzyme (Cardiovascular Targets) was used at 0.14 ng/μl, final concentration, to achieve lipid transfer. CETP inhibition by compounds was compared to DMSO controls and graphed as a percentage of the control CETP activity over 2 hours. The IC50 curves for CETP inhibition were generated from the activity profiles. Active compounds were also tested for CETP inhibition as above, but in the presence of 3% human serum albumin, fraction V (Calbiochem).
Using this protocol, IC50 data for CETP inhibition were obtained.

The IC50 is the concentration that gives 50% inhibition.

`CCOC(=O)N1c2c(c(C)nn2C)C(N(Cc2cc(C(F)(F)F)cc(C(F)(F)F)c2)C(=O)OC)CC1CC` (stereo not shown) [Example E1, 4-[(3,5-Bis-trifluoromethyl-benzyl)-methoxycarbonyl-amino]-6-ethyl-1,3-dimethyl-1,4,5,6-tetrahydro-pyrazolo[3,4-b]pyridine-7-carboxylic acid ethyl ester]: the IC50 was found to be 4.6 µM.
